Test results from patent CN109456950A, “一种环糊精葡萄糖基转移酶的突变体及其应用” (priority 2018, dated 2019).

What was measured:
Type in all cases: biochemical
[1] = biological target: T1, Bacillus circulans cyclodextrin glycosyltransferase (CGTase) variant M234I, Met234Ile of parent SEQ ID NO.2 [来源于环状芽孢杆菌(B.circulans)的环糊精葡萄糖基转移酶, M234I] (Niallia circulans, UniProt P43379, M261I); assay: Acceptor affinity for maltose (Km) in the disproportionation reaction, M234I; conditions: M234I vs wild type, EPS as donor, pH 5.5, 50℃, affinity expressed by Km
T1 construct: made in house; host or cells: E. coli BL21(DE3), pET-20b(+), fermentation supernatant (crude enzyme)
T1 sequence (P43379 28-713 M261I): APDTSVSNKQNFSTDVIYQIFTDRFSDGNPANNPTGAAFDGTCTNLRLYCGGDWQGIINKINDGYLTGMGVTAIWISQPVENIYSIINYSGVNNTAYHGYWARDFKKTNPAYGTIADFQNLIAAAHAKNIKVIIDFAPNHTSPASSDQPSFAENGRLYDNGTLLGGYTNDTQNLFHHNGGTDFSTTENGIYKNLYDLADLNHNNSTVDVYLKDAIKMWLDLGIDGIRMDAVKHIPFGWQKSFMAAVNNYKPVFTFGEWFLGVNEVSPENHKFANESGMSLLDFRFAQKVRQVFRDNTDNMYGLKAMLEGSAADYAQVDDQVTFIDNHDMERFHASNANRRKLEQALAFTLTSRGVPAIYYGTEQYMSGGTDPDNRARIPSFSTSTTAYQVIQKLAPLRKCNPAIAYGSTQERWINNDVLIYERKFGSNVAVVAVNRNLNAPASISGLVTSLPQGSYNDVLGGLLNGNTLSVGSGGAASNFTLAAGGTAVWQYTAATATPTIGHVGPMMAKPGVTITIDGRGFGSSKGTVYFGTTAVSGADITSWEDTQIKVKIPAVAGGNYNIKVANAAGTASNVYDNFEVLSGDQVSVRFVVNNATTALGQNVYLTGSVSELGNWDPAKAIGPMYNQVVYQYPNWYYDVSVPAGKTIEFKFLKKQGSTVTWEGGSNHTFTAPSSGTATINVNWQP

[2] = biological target: Bacillus circulans cyclodextrin glycosyltransferase (CGTase) variant M234A, Met234Ala of parent SEQ ID NO.2 [来源于环状芽孢杆菌(B.circulans)的环糊精葡萄糖基转移酶, M234A] (Niallia circulans, UniProt P43379, M261A); assay: Acceptor affinity for maltose (Km) in the disproportionation reaction, M234A; conditions: M234A vs wild type, EPS as donor, pH 5.5, 50℃, affinity expressed by Km
Chain of Bacillus circulans cyclodextrin glycosyltransferase (CGTase) variant M234A, Met234Ala of parent SEQ ID NO.2 [来源于环状芽孢杆菌(B.circulans)的环糊精葡萄糖基转移酶, M234A] (P43379 whole entry M261A): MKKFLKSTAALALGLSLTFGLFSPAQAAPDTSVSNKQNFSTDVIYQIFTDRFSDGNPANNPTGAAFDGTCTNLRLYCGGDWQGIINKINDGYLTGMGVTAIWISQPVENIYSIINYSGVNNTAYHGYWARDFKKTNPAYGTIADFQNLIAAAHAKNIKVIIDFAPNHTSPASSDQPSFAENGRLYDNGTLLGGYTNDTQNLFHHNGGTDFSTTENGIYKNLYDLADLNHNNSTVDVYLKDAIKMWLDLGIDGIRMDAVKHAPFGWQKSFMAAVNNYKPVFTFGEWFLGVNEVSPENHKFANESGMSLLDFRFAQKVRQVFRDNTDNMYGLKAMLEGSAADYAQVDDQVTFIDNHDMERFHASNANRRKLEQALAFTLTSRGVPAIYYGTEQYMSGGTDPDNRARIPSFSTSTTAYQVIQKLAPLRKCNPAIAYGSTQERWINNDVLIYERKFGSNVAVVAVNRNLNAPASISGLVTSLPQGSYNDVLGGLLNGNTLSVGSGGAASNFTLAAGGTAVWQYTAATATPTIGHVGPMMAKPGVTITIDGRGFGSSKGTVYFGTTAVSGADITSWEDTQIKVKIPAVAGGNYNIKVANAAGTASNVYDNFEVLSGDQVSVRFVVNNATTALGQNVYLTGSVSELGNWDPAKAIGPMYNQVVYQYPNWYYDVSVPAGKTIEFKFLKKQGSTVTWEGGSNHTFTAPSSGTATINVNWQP

[3] = biological target: Bacillus circulans cyclodextrin glycosyltransferase (CGTase) variant M234L, Met234Leu of parent SEQ ID NO.2 [来源于环状芽孢杆菌(B.circulans)的环糊精葡萄糖基转移酶, M234L] (Niallia circulans, UniProt P43379, M261L); assay: Acceptor affinity for maltose (Km) in the disproportionation reaction, M234L; conditions: M234L vs wild type, EPS as donor, pH 5.5, 50℃, affinity expressed by Km
Chain of Bacillus circulans cyclodextrin glycosyltransferase (CGTase) variant M234L, Met234Leu of parent SEQ ID NO.2 [来源于环状芽孢杆菌(B.circulans)的环糊精葡萄糖基转移酶, M234L] (P43379 whole entry M261L): as the sequence (P43379 whole entry M261A) above, with A261L counted along it

[4] = biological target: T2, Bacillus circulans cyclodextrin glycosyltransferase (CGTase) variant M234V, Met234Val of parent SEQ ID NO.2 [来源于环状芽孢杆菌(B.circulans)的环糊精葡萄糖基转移酶, M234V] (Niallia circulans, UniProt P43379, M261V); assay: Acceptor affinity for maltose (Km) in the disproportionation reaction, M234V; conditions: M234V vs wild type, EPS as donor, pH 5.5, 50℃, affinity expressed by Km
T2 construct: made in house; host or cells: E. coli BL21(DE3), pET-20b(+), fermentation supernatant (crude enzyme)
T2 sequence (P43379 28-713 M261V): as the sequence (P43379 28-713 M261I) above, with I234V counted along it

With OCC1OC(OC2C(CO)OC(O)C(O)C2O)C(O)C(O)C1O (stereo not shown) [麦芽糖] the “increase in acceptor affinity for maltose compared with wild type” value (shortened to “increase in acceptor affinity”) [1] was 45.6%, the “increase in acceptor affinity” value [2] was 34.7% and the “increase in acceptor affinity” value [3] was 30.3%. The “increase in acceptor affinity” value [4] was 36.9%.
